# Laboratory results taken from PMC3809587, “Structure and function of the Smoothened extracellular domain in vertebrate Hedgehog signaling” (eLife, 2013).
# “Also recorded” adds a separate entry of the source. Like-named read-outs stand apart in the source and are kept apart here.
# Legend:
# mSmo CRD-Fc = biological target: T1, mSmo CRD-Fc (Mus musculus, UniProt P56726); experiment: Ligand affinity chromatography: mSmo CRD-Fc binding to 20(S)-OHC beads; settings: free compound added as competitor
# T1 construct: made in house; host or cells: 293F suspension cells (secreted)
# T1 sequence (P56726 33-183): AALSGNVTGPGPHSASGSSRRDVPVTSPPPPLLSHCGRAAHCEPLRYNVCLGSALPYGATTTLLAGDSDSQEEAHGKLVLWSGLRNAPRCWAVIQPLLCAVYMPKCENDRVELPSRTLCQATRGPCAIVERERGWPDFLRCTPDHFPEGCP
# Experimental: After binding was allowed to proceed for 12 hr at 4°C, the resin was washed and captured protein was eluted as described above. The presence of mSmo CRD-Fc was measured by an anti-human HRP-coupled antibody (1:20,000) or anti-human IR800-coupled antibody (1:10,000; for all quantitation, detected by LiCor Odyssey). The presence of zSmo ectodomain protein was measured by colloidal Coomassie staining (GelCode Blue, Pierce/Thermo Scientific). […]
# full-length mSmo = biological target: T2, full-length mSmo (Mus musculus, UniProt P56726); experiment: Bodipy-cyclopamine binding to Smo-expressing cells by FACS
# T2 construct: expressed in transfected cells
# T2 sequence (P56726 33-793): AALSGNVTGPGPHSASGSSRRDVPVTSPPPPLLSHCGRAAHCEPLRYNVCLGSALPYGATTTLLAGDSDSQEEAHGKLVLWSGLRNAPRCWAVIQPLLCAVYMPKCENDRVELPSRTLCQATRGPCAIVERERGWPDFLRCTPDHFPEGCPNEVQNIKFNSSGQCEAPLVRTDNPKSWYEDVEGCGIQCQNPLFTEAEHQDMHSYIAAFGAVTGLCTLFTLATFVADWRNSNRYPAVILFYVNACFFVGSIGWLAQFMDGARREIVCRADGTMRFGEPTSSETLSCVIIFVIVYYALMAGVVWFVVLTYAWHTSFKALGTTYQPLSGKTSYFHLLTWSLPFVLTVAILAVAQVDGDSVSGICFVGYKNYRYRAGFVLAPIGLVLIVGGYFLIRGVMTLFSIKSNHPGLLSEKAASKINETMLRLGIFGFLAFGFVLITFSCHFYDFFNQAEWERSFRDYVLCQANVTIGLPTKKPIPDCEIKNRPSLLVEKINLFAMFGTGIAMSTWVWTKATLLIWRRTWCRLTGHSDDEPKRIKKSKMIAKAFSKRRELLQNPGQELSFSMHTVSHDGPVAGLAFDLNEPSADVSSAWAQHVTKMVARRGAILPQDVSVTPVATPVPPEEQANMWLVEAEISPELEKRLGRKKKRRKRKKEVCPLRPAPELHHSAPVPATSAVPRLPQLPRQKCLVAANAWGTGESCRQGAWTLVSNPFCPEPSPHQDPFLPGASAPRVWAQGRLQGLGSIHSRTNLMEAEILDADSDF
# [1] = system: endogenous mSmo in cilia of NIH 3T3 cells; set-up: method as in Rohatgi et al., 2009; settings: ref Rohatgi et al., 2009; cited from earlier work
# [2] = system: Hh reporter (8xGli-responsive promoter); settings: cited from earlier work
# Smo = settings: ref Wang et al., 2012; cited from earlier work
# YFP-mSmo = biological target: T3, YFP-mSmo (Mus musculus, UniProt P56726); experiment: Gli1 and Gli3R immunoblot in Smo−/−:YFP-mSmo cells; format: cell-based; settings: SAG 100 nM, 20(S)-OHC 10 μM
# T3 construct: Smo^−/− cells stably expressing full-length (FL) YFP-mSmo or ΔCRD-YFP-mSmo were treated with Shh, SAG (100 nM) or 20(S)-OHC (10 μM); expressed in transfected cells
# T3 sequence (P56726 33-793): as above
# Experimental: Cultured cells stably expressing YFP-mSmo, ΔCRD-YFP-mSmo, or ΔC-YFP-mSmo were scraped into ice-cold PBS containing SigmaFast Protease inhibitor cocktail (Sigma) and collected as a pellet by centrifugation (1000×g, 10 min, 4°C). Cells were lysed (1 hr, 4°C) by agitation in modified RIPA buffer (50 mM sodium-Tris pH 7.4, 150 mM sodium chloride, 2% NP-40, 0.5% deoxycholate, 0.1% sodium-dodecyl sulfate [SDS], 1 mM dithiothreitol and the SigmaFast Protease inhibitor cocktail). After clarification (20,000×g, 45 min, 4°C), the protein concentration of each lysate was measured using the bicinchoninic acid assay (BCA, Pierce/Thermo Scientific, Rockford, IL). Lysate aliquots containing equal amount of total protein were fractionated on an 8% SDS-PAGE gel and transferred to a nitrocellulose membrane for immunoblotting with anti-Gli1 antibody (#L42B10, 1:500; Cell Signaling, Denvers, MA), anti-GFP antibody (1:5000; Novus, Littleton, CO), anti-Gli3 antibody (AF3690 1:200; R&D, Minneapolis, MN) and anti-p38 antibody (ab31828, 1:2000; Abcam, Cambridge, MA). In Figures 1–4, vertical dashed black lines represent non-contiguous lanes from the same immunoblot juxtaposed for clarity.
# ΔCRD-YFP-mSmo = biological target: T4, ΔCRD-YFP-mSmo (Mus musculus, UniProt P56726, DEL68-184); experiment: Hh signaling by ΔCRD-YFP-mSmo in Smo−/− cells (immunoblot, Hh reporter); format: cell-based; settings: SAG 100 nM, 20(S)-OHC 10 μM
# T4 construct: All mSmo mutants were made using Quickchange or PCR methods in the context of a previously described construct encoding full-length mouse Smo (UniProt P56726); expressed in transfected cells
# T4 sequence (P56726 with tags, fused parts or gaps DEL68-184): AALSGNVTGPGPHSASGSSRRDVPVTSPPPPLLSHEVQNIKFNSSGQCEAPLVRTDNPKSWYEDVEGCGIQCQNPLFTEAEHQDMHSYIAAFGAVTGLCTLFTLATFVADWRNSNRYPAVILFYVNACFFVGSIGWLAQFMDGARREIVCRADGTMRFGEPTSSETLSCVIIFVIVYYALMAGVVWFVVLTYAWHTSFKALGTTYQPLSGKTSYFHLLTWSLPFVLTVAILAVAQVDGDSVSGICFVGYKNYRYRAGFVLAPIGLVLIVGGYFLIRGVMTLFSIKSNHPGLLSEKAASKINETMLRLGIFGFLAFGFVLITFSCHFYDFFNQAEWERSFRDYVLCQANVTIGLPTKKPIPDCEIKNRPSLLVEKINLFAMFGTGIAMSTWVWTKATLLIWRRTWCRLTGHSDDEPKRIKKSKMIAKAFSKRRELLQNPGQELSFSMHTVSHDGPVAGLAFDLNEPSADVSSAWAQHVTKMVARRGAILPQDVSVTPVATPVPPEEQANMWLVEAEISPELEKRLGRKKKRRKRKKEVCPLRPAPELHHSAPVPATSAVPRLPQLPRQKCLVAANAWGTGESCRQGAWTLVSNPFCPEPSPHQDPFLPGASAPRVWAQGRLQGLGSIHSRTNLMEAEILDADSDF
# [3] = system: Hh reporter (8xGli-responsive promoter); experiment: Luciferase-based Hh reporter assay; format: cell-based, mouse; settings: in the absence of Shh
# Experimental: For reporter assays in NIH 3T3 cells, a 10-cm plate of cells was transfected with 8 μg of a 4:1 wt/wt ratio of firefly luciferase reporter driven by an 8xGli-responsive promoter ([Sasaki et al., 1997]) and a Renilla luciferase reporter driven by a constitutive TK promoter (Promega, Madison, WI). The next day, transfected cells were seeded into a 96-well plate, grown to confluence, and treated overnight with drugs diluted in media containing 0.5% fetal bovine serum (FBS). For reporter assays in Smo^−/− cells, 25,000 cells per well were seeded in a 24-well plate 24 hr prior to transfection. […] Activity of both reporters was measured using the Dual-Luciferase Reporter kit (Promega) and read on a Synergy H1 Hybrid Multi-Mode Microplate Reader (BioTek, Winooski, VT). […]
# For Hh reporter assays, each point is reported as the mean ± standard deviation (SD) derived from triplicates. […] Relative luciferase activity was calculated by dividing Gli luciferase by Renilla luciferase luminescence. Fold-change in reporter activity was calculated by dividing each replicate by the mean reporter activity of the vehicle-treated control. Normalized (% of max) Hh reporter activity was calculated by setting the maximum value of a set to 100% and zero to 0% using the ‘normalize’ function of GraphPad Prism. […]
# mSmo D477H = biological target: T5, mSmo D477H (Mus musculus, UniProt P56726, D477H); experiment: Hh reporter assay in Smo−/− cells transfected with mSmo D477H; format: cell-based; settings: Shh, 25 µM, 48 hr
# T5 construct: All mSmo mutants were made using Quickchange or PCR methods in the context of a previously described construct encoding full-length mouse Smo (UniProt P56726); expressed in transfected cells; host or cells: Smo-/- mouse embryonic fibroblasts (transient)
# T5 sequence (P56726 33-793 D477H): as the sequence (P56726 33-793) above, with D445H counted along it
# Experimental: (§1) For reporter assays in NIH 3T3 cells, a 10-cm plate of cells was transfected with 8 μg of a 4:1 wt/wt ratio of firefly luciferase reporter driven by an 8xGli-responsive promoter ([Sasaki et al., 1997]) and a Renilla luciferase reporter driven by a constitutive TK promoter (Promega, Madison, WI). The next day, transfected cells were seeded into a 96-well plate, grown to confluence, and treated overnight with drugs diluted in media containing 0.5% fetal bovine serum (FBS). For reporter assays in Smo^−/− cells, 25,000 cells per well were seeded in a 24-well plate 24 hr prior to transfection. The next day, after a media replacement step, each well was transfected with 1 ng Smo construct and 500 ng of the reporter mix described above, using Xtreme Gene HP (Roche, Mannheim, Germany). After overnight transfection, the media were once again changed to fresh media. Cells were grown to confluence and treated with drugs diluted in media with 0.5% FBS for 48 hr. Activity of both reporters was measured using the Dual-Luciferase Reporter kit (Promega) and read on a Synergy H1 Hybrid Multi-Mode Microplate Reader (BioTek, Winooski, VT). The Gli luciferase to Renilla luciferase ratio is reported as ‘Hedgehog reporter activity’. Each experiment, which included three technical replicates, was repeated at least three times.
# mSmoM2 = biological target: T6, mSmoM2 (Mus musculus, UniProt P56726, W539L); experiment: Hh reporter assay in NIH 3T3 cells transfected with mSmoM2; format: cell-based; settings: 10 µM each, 12 hr
# T6 construct: All mSmo mutants were made using Quickchange or PCR methods in the context of a previously described construct encoding full-length mouse Smo (UniProt P56726); expressed in transfected cells; host or cells: NIH 3T3 cells
# T6 sequence (P56726 33-793 W539L): as the sequence (P56726 33-793) above, with W507L counted along it
# Experimental: as §1
molecule,measurement,setting,value
Cc1nn(-c2ccccc2)c(C)c1/C=N/N1CCN(Cc2ccccc2)CC1 [SANT-1],inhibition of binding of mSmo CRD-Fc to 20(S)-OHC beads,mSmo CRD-Fc,failed to inhibit the binding
same,competition of bodipy-cyclopamine binding,full-length mSmo,can be competed
same,Shh-induced Smo accumulation in cilia,[1],prevent Shh-induced Smo accumulation in cilia
CC(C)CCC[C@@](C)(O)[C@H]1CC[C@H]2[C@@H]3CC=C4C[C@@H](O)CC[C@]4(C)[C@H]3CC[C@@]21C [20(R)-OHC],inhibition of binding of mSmo CRD-Fc to 20(S)-OHC beads,mSmo CRD-Fc,unable to inhibit binding; also recorded: failed to inhibit
same,activation of Hh signaling,"[2]; ref Nachtergaele et al., 2012",cannot activate Hh signaling
CC(C)CCCC(=O)[C@H]1CC[C@H]2[C@@H]3CC=C4C[C@@H](O)CC[C@]4(C)[C@H]3CC[C@]12C [20-keto-cholesterol],inhibition of binding of mSmo CRD-Fc to 20(S)-OHC beads,mSmo CRD-Fc,failed to inhibit
CCCC1O[C@@H]2C[C@H]3[C@@H]4CCC5=CC(=O)C=C[C@]5(C)[C@H]4[C@@H](O)C[C@]3(C)[C@]2(C(=O)CO)O1 (stereo partly shown) [Budesonide],competition with cyclopamine for binding to Smo,Smo,fail to compete with cyclopamine for binding to Smo
C#CCC[C@](C)(O)[C@H]1CC[C@H]2[C@@H]3CC=C4C[C@@H](O)CC[C@]4(C)[C@H]3CC[C@@]21C [20(S)-yne],inhibition of binding of mSmo CRD-Fc to 20(S)-OHC beads,mSmo CRD-Fc,Binding could be inhibited
same,potency relative to 20(S)-OHC,"[2]; Hh-activation potency, ref Nachtergaele et al., 2012",~10 fold
CC(C)C(=O)OCC(=O)[C@@]12O[C@H](C3CCCCC3)O[C@@H]1C[C@H]1[C@@H]3CCC4=CC(=O)C=C[C@]4(C)[C@H]3[C@@H](O)C[C@@]12C [Ciclesonide],competition with cyclopamine for binding to Smo,Smo,fail to compete with cyclopamine for binding to Smo
CNC1CCC(N(Cc2cccc(-c3ccncc3)c2)C(=O)c2sc3ccccc3c2Cl)CC1 (stereo not shown) [SAG],inhibition of binding of mSmo CRD-Fc to 20(S)-OHC beads,mSmo CRD-Fc,failed to inhibit the binding
same,Gli3R level,YFP-mSmo,loss of the repressor form of Gli3 (Gli3R) was observed
same,activation of Hh target gene Gli1,YFP-mSmo,"could activate a Hh target gene, Gli1"
same,"response of ΔCRD-YFP-mSmo to agonist (Hh target genes, Gli3R)",ΔCRD-YFP-mSmo,retained its ability to respond to SAG
"C#CCCC(=O)[C@H]1CC[C@H]2[C@@H]3CC=C4C[C@@H](O)CC[C@]4(C)[C@H]3CC[C@]12C [20-keto-yne, (3β, 17β)-17-(1-oxopent-4-yn-1-yl)-androst-5-en-3-ol]",inhibition of binding of mSmo CRD-Fc to 20(S)-OHC beads,mSmo CRD-Fc,blocked the binding
same,activation of Hh signaling,[3],weak activators of signaling
same,signaling by mSmo D477H,mSmo D477H,reduced signaling
same,signaling by mSmoM2,mSmoM2,reduced signaling
same,competition of bodipy-cyclopamine binding,full-length mSmo,did not affect the binding
CS(=O)(=O)c1ccc(C(=O)Nc2ccc(Cl)c(-c3ccccn3)c2)c(Cl)c1 [Vismodegib],Shh-induced Smo accumulation in cilia,[1],prevent Shh-induced Smo accumulation in cilia
CC(C)CCC[C@@](C)(O)[C@@H]1CC[C@@H]2[C@H]3CC=C4C[C@H](O)CC[C@@]4(C)[C@@H]3CC[C@]21C [ent-20(S)-OHC],inhibition of binding of mSmo CRD-Fc to 20(S)-OHC beads,mSmo CRD-Fc,unable to inhibit binding
same,activation of Hh signaling,"[2]; ref Nachtergaele et al., 2012",cannot activate Hh signaling
CC(C)CCN[C@@H](C)[C@H]1CC[C@H]2[C@@H]3CC=C4C[C@@H](O)CC[C@]4(C)[C@H]3CC[C@]12C [22-azacholesterol],block of signaling induced by SAG or by mSmoM2,"[2]; ref Nedelcu et al., 2013",does not block signaling induced by SAG or by mSmoM2
CCC(C)n1ncn(-c2ccc(N3CCN(c4ccc(OCC5COC(Cn6cncn6)(c6ccc(Cl)cc6Cl)O5)cc4)CC3)cc2)c1=O (stereo not shown) [Itraconazole],inhibition of binding of mSmo CRD-Fc to 20(S)-OHC beads,mSmo CRD-Fc,failed to inhibit the binding
"(3β, 17β)-17-[(2R)-2-hydroxy-hex-4-yn-2-yl]-androst-5-en-3-ol [20(R)-yne]",inhibition of binding of mSmo CRD-Fc to 20(S)-OHC beads,mSmo CRD-Fc,blocked the binding
same,activation of Hh signaling,[3],weak activators of signaling
same,signaling by mSmo D477H,mSmo D477H,reduced signaling
same,signaling by mSmoM2,mSmoM2,reduced signaling
same,competition of bodipy-cyclopamine binding,full-length mSmo,did not affect the binding
CC(C)CC[C@H](O)[C@@H](C)[C@H]1CC[C@H]2[C@@H]3CC=C4C[C@@H](O)CC[C@]4(C)[C@H]3CC[C@]12C [22(S)-OHC],inhibition of binding of mSmo CRD-Fc to 20(S)-OHC beads,mSmo CRD-Fc,unable to inhibit binding
same,activation of Hh signaling,"[2]; ref Nachtergaele et al., 2012",cannot activate Hh signaling
